Measurements from US8242166B2, “C(10) ethyl ester and C(10) cyclopropyl ester substituted taxanes” (Florida State University Research Foundation, Inc., priority 2008, dated 2012).
Where “and” joins values, the source holds several entries; their conditions need not be identical. Equal entries are not always repeated. Where two headings read alike, the source gives them in different places.

Tests used:
[1] = test system: HCT116; assay: MTT cytotoxicity (IC50), HCT116; type: cell-based; settings: Homo sapiens, HCT-116, 72 h, read-out: IN Vitro IC50 (nm) HCT116
Method: (§1) All cell lines were maintained in RPMI-1640 tissue culture medium (TCM, supplemented with antibiotics and 10% fetal bovine serum) and cultured at 37° C. in humidified air containing 5% CO2. To assess the antiproliferative effects of the test compounds, 172 μL of tumor cell suspension (1.45×10^4 cells/ml) were added to each well of a 96-well plate and incubated for 24 h at 37° C. in 5% CO2 in air to allow cells to adhere. Seven 2-fold drug dilutions in TCM/DMSO were performed in triplicate in separate 96-well plates and 28 μL was transferred to the wells containing tumor cells (200 μL final volume/0.1% DMSO). Plates were incubated for 72 h and cell viability was determined by adding 50 μL of warm TCM containing 5 mg/mL MTT (3-[4,5-dimethylthiazol-2-yl]-2,5-diphenyltetrazolium bromide) to each well and incubating for 1 h at 37° C. Plates were processed and the absorbances of the resulting solutions were measured by a plate reader at 570 nm. […] (GraphPad Prism version 4.00 for Windows). Studies were conducted by Taxolog, Inc., Tallahassee, Fla.

[2] = test system: 786-0; assay: MTT cytotoxicity (IC50), 786-0; type: cell-based; settings: Homo sapiens
Method: as §1, with “Compound 17932 was tested in four of these cell lines, while the remaining compounds were tested in all of these cell lines. All” for “All”

[3] = test system: A549; assay: MTT cytotoxicity (IC50), A549; type: cell-based; settings: Homo sapiens, 72 h, read-out: IN Vitro IC50 (nm) A549
Method: as §1, with “Compound 17932 was tested in four of these cell lines, while the remaining compounds were tested in all of these cell lines. All” for “All”

[4] = test system: MALME-3; assay: MTT cytotoxicity (IC50), MALME-3; type: cell-based; settings: Homo sapiens, 72 h, read-out: IN Vitro IC50 (nm) Malme3
Method: as §1, with “Compound 17932 was tested in four of these cell lines, while the remaining compounds were tested in all of these cell lines. All” for “All”

[5] = test system: HOP-18; assay: MTT cytotoxicity (IC50), HOP-18; type: cell-based; settings: Homo sapiens, 72 h, read-out: IN Vitro IC50 (nm) HOP18
Method: as §1, with “Compound 17932 was tested in four of these cell lines, while the remaining compounds were tested in all of these cell lines. All” for “All”

[6] = test system: human BxPC-3 human pancreatic xenograft; type: in vivo; settings: for mean doubling time (DT) of tumors / time to reach volume (T to V) of 1,000 mm^3: repeated; for optimal T/C % value: at D53; for T/C % values: from D33; for antitumor activity: repeated IV injections at 5 and 7 mg/kg/inj
Method: Method: Twenty four (24) hours after a whole body irradiation with a γ-source (7.0 Gy, Co^60, INRA, Dijon, France) 20×10^6 BxPC-3 cells in 200 μl of RPMI 1640 culture medium were subcutaneously injected in the right flank of 8 female Nude rats to generate tumor material. When the tumor size reaches approximately 1,000 mm^3, the tumors were surgically excised for implantation into recipient Nude female rats. Twenty four (24) hours after a whole body irradiation (7.0 Gy, Co^60, INRA, Dijon, France), fresh BxPC-3 tumor fragments were sc implanted in the right flank of 52 Nude female rats (1 fragment/rat) at D0 using surgical pliers and skin was stitched. The antitumor activity study was started at D21 when the mean tumor volume has reached 321.6±131.2 mm^3. Before the start of treatments, 42 tumor bearing rats out of 52 grafted were randomized into 7 groups of 6 animals.
[…]. At 7 mg/kg/inj, only two treatments were performed at D21 and D42 due to severe body weight loss.

[7] = test system: human A375 melanoma xenograft; assay: A375 xenograft study e209 (Example 27); settings: 30 mg/kg iv q4d × 4; for CR (complete regression) / NTR NTRa/u / NTR NTRm / PR (partial regression) / TFS (tumor-free survivor) / TR (treatment-related death): n=6; for % TGD / Median TTE / T-C: vehicle EL
Method: The endpoint was a tumor volume of 2,000 mm^3 and the study was terminated on Day 56. Efficacy was assessed by tumor growth delay and the number of partial and complete regressions. Animals with a CR that persisted through Day 56 were classified as long-term tumor-free survivors (TFS).

[8] = test system: SKMES lung tumors; assay: SKMES xenograft study, i.v. single dose (Example 20); type: in vivo, nude mice; settings: 30 mg/kg iv qd × 1
Method: This study was conducted at PRC as previously described. SKMES is a human lung cancer cell line. In the present study, compound 2 and all agents were administered as i.v. monotherapies in a single 30 mg/kg dose (qd×1). […] Control mice received this vehicle qd×1. […] The endpoint volume for tumor growth was 1,500 mm^3. The study was terminated on Day 23.

[9] = test system: HT29 human tumor xenografts; assay: HT29 xenograft study e133 (Example 24); type: in vivo, nude mice
Method: […]. Control mice received the 5% E 95% L-II vehicle q4d×4. A positive reference group received i.v. therapy with compound 2, at 30 mg/kg once weekly for three weeks (q7d×3), in a vehicle of 7.5% ethanol and 7.5% Tween® 80 in 5% dextrose in water. […] The endpoint volume for tumor growth was 1,000 mm^3. […].

[10] = MTT, 72 h, read-out: IN Vitro IC50 (nm) 786-0
[11] = Resistance MDR1+, read-out: 786-0 Renal (Table 4, quantity not named; IC50 values as Table 2)
[12] = 7 mg/kg/inj IV, after the first treatment

In the case of CC(=O)O[C@@]12CO[C@@H]1C[C@H](O)[C@@]1(C)C(=O)[C@H](OC(=O)C3CC3)C3=C(C)[C@@H](OC(=O)[C@H](O)[C@@H](NC(=O)OC4CCC4)c4cccs4)C[C@@](O)([C@@H](OC(=O)c4ccccc4)C12)C3(C)C (stereo partly drawn) [Compound 18365], the IC50 [1] is reported as 0.4 nM, the IC50 [2, 10] is reported as 1.1 nM and the IC50 [2, 11] is reported as 1.1 nM. The IC50 [3] was 0.5 nM, the IC50 [4] was 4.1 nM and the IC50 [5] was 0.7 nM. The wt loss ([6]; 5 mg/kg) was 16.9%, the “tolerability of repeated IV treatments” value ([6]; 5 mg/kg/inj) was “not well tolerated” and the “mean doubling time (DT) of tumors” value ([6]; 5 mg/kg/inj IV) was 24.7 ± 10.4 days. For the same molecule, the “time to reach volume (T to V) of 1,000 mm^3” value ([6]; 5 mg/kg/inj IV) was 64.3 ± 16.3 days, the body weight loss ([6]; 5 mg/kg/inj IV, at D33) was −16.9±6.1% and the “optimal T/C % value” ([6]; 5 mg/kg/inj IV) was 11.0%. For the same molecule, the “animals with complete tumor regression” value ([6]; 5 mg/kg/inj IV, at D81 (final sacrifice), 6 rats per group) was “two”, the T/C % values ([6]; 5 mg/kg/inj IV) was “lower than 42%” and the “tolerability of repeated IV treatments” value ([6]; 7 mg/kg/inj) was “not tolerated”. For the same molecule, the “rats out of six alive at the end of the study” value ([6]; 7 mg/kg/inj IV) was “one”, the “MBWC D21-D26” value [6, 12] was −16.5±7.2% and the “optimal T/C % value” ([6]; 7 mg/kg/inj IV) was 13.2% and 8.9%. For the same molecule, the T/C % values ([6]; 7 mg/kg/inj IV) was “lower than 42%”, the “antitumor activity” value [6] was “marked antitumor activity” and the “BW Nadir” value [7] was −9.8% (14). The “MTV(n), Day 56” value [7] was 0.00 (6) mm^3, the “CR (complete regression)” value [7] was 5 and the “NTR NTRa/u” value [7] was 0. For the same molecule, the “NTR NTRm” value [7] was 0, the “PR (partial regression)” value [7] was 0 and the “TFS (tumor-free survivor)” value [7] was 5. For the same molecule, the “TR (treatment-related death)” value [7] was 0, the “% TGD” value [7] was 210.08% and the “Median TTE” value [7] was 56 days. It also gave a T-C [7] of 37.94 days.

Molecule CCC(=O)O[C@H]1C(=O)[C@@]2(C)C([C@H](OC(=O)c3ccccc3)[C@]3(O)C[C@H](OC(=O)[C@H](O)[C@@H](NC(=O)OC4CCCC4)c4cccs4)C(C)=C1C3(C)C)[C@]1(OC(C)=O)CO[C@@H]1C[C@@H]2O (stereo partly drawn) [Compound 18926] has an IC50 [1] of 0.3 nM, an IC50 [2, 10] of 0.7 nM and an IC50 [2, 11] of 0.7 nM. For the same molecule, the IC50 [3] was 0.4 nM, the IC50 [4] was 1.8 nM and the IC50 [5] was 1.6 nM. The “BW Nadir” value [7] was 13.3% (18), the “MTV(n), Day 56” value [7] was 0.00 (6) mm^3 and the “CR (complete regression)” value [7] was 6. For the same molecule, the “NTR NTRa/u” value [7] was 0, the “NTR NTRm” value [7] was 0 and the “PR (partial regression)” value [7] was 0. The “TFS (tumor-free survivor)” value [7] was 6, the “TR (treatment-related death)” value [7] was 0 and the “% TGD” value [7] was 210.08%. The “Median TTE” value [7] was 56 days and the T-C [7] was 37.94 days.

Molecule CCC(=O)O[C@H]1C(=O)[C@@]2(C)C([C@H](OC(=O)c3ccccc3)[C@]3(O)C[C@H](OC(=O)[C@H](O)[C@@H](NC(=O)OC4CCC4)c4cccs4)C(C)=C1C3(C)C)[C@]1(OC(C)=O)CO[C@@H]1C[C@@H]2O (stereo partly drawn) [Compound 19244] has an IC50 [1] of 0.4 nM, an IC50 [2, 10] of 0.9 nM and an IC50 [2, 11] of 0.9 nM. It also gave an IC50 [3] of 0.5 nM, an IC50 [4] of 1.1 nM and an IC50 [5] of 1.5 nM. For the same molecule, the “% TGD” value [8] was 61.94%, the “MTV (n), Day 23” value [8] was 352.00 (5) mm^3 and the “Median TTE” value [8] was 23 days. For the same molecule, the T-C [8] was 8.8 days, the “NTR NTRm” value ([8]; n=5) was 0 and the “PR (partial regression)” value ([8]; n=5) was 0. The “TFS (tumor-free survivor)” value ([8]; n=5) was 1, the “TR (treatment-related death)” value ([8]; n=5) was 0 and the MTV ([9]; 30 mg/kg i.v. q4d×4) was 0. The TGD ([9]; 30 mg/kg i.v. q4d×4) was 172%, the 55-day survivors ([9]; 30 mg/kg i.v. q4d×4, six mice) was “five” and the “Max. % BW Loss; Day” value ([9]; 30 mg/kg iv Q4d × 4) was −17.3%; Day 17. The “# Death NTR” value ([9]; 30 mg/kg iv Q4d × 4, n=6) was 0, the “tolerability of repeated IV treatments” value ([6]; 5 mg/kg/inj) was “well tolerated” and the “mean doubling time (DT) of tumors” value ([6]; 5 mg/kg/inj IV) was 19.3 ± 6.5 days. The “time to reach volume (T to V) of 1,000 mm^3” value ([6]; 5 mg/kg/inj IV) was 46.0 ± 11.6 days, the “MBWC D21-D26” value ([6]; 5 mg/kg/inj IV, after the first injection) was −15.9±5.6% and the “optimal T/C % value” ([6]; 5 mg/kg/inj IV) was 27.7%. For the same molecule, the “tolerability of repeated IV treatments” value ([6]; 7 mg/kg/inj) was “not tolerated”, the “rats out of six alive at the end of the study” value ([6]; 7 mg/kg/inj IV) was “two” and the “MBWC D21-D26” value [6, 12] was −20.1±5.7%. The “antitumor activity” value [6] was “marked antitumor activity”, the “BW Nadir” value [7] was 10.4% (18) and the “MTV(n), Day 56” value [7] was 0.00 (6) mm^3. For the same molecule, the “CR (complete regression)” value [7] was 6, the “NTR NTRa/u” value [7] was 0 and the “NTR NTRm” value [7] was 0. The “PR (partial regression)” value [7] was 0, the “TFS (tumor-free survivor)” value [7] was 6 and the “TR (treatment-related death)” value [7] was 0. The “% TGD” value [7] was 210.08%, the “Median TTE” value [7] was 56 days and the T-C [7] was 37.94 days.
